Data: patent publication US9012420B2, “Aptamer for chymase, and use thereof” (Ribomic Inc., priority 2009, dated 2015)
Oligonucleotides are written 5' to 3', each unit as a sugar letter and its base; * is a phosphorothioate linkage, no mark a phosphodiester; rarer units and linkages stand in square brackets, end groups in braces. Plain capitals give the bases only. r = 2'-OH (RNA); f = 2'-fluoro

Experiments:
[1] = target: T1, chymase (recombinant, manufactured by SIGMA) (Homo sapiens, UniProt P23946); test: Surface plasmon resonance (Biacore T100), chymase immobilized on CM5 chip, nucleic acid injected as analyte; type: binding; set-up: key to Binding activity as determined using Biacore: ++: a sequence that binds to chymase significantly more strongly than the negative control 40N; +: a sequence that binds to chymase equivalently compared with the negative control 40N; key to binding activity using Biacore: ++: significant binding to chymase than SEQ ID NO: 58 which is a negative control; +: similar binding level as SEQ ID NO: 58 which is a negative control; conditions: for binding activity using Biacore: Table 5, same manner as Example 4, compared with SEQ ID NO: 58; for Binding activity as determined using Biacore: Table 4, about 4000 RU chymase immobilized, nucleic acid 0.3 μM, solution C, compared with 40N
T1 construct: purchased SIGMA; host or cells: yeast
T1 sequence (P23946 22-247): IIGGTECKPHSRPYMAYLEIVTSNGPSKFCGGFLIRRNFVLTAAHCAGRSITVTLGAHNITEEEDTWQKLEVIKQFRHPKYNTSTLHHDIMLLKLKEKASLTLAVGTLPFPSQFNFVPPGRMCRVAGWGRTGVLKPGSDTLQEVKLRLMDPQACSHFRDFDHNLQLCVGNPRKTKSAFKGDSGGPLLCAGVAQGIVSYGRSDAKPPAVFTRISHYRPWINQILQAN
Protocol: In another method, chymase is first immobilized onto a sensor chip, the amount immobilized being about 4000 RU. 20 μL of an aptamer solution for analyte, prepared at 0.01 μg/μL, is injected, and the binding of the aptamer to chymase is detected. An RNA containing a random nucleotide sequence of 30 or 40 nucleotides is used as a negative control.
Whether these nucleic acids bind to chymase was determined by the surface plasmon resonance method. Measurements were taken using Biacore T100 (manufactured by GE Healthcare) as described below. About 4000 RU of chymase (recombinant, manufactured by SIGMA) was immobilized on the sensor chip surface of a CM5 chip, using an amine coupling kit. 20 μL of each nucleic acid, prepared at 0.3 μM, as an analyte was injected at a flow rate of 20 μL/min. Solution C was used as a running buffer. The method of evaluation used was the same as Example 1.
All nucleic acids of SEQ ID NO: 58-68 were prepared by chemical synthesis. Whether these nucleic acids are bound to chymase was assessed by surface plasmon resonance method in the same manner as in Example 4. The inhibitory activity on chymase was measured in the same manner as in Example 3.
All nucleic acids of SEQ ID NOs: 73-79, 56(8), 80, 56(10), 81, 56(13)-56(14), 83-87 were prepared by chemical synthesis. Whether these nucleic acids are bound to chymase was assessed by surface plasmon resonance method in the same manner as in Example 4.
All nucleic acids of SEQ ID NO: 88-120, 121, 69, 122, 123, 70-72, 124-131 were prepared by chemical synthesis. Whether these nucleic acids are bound to chymase was assessed by surface plasmon resonance method in the same manner as in Example 4.

[2] = target: T1, chymase (recombinant, manufactured by SIGMA); test: Chymase inhibitory activity using synthetic substrate Suc-Ala-Ala-Pro-Phe-MCA; type: biochemical
Protocol: A first method employs a synthetic substrate. A useful chymase substrate is Suc-Ala-Ala-Pro-Phe-MCA (4-methylcoumaryl-7-amide group) (manufactured by Peptide Institute, Inc.), which contains the 4-amino acid peptide “Ala-Ala-Pro-Phe”, a standard substrate for chymotrypsin-like proteases.
The assay is performed using a 96-well plate (F16 Black Maxisorp Fluoronunc, manufactured by Nunc), with a reaction mixture volume of 100 μL, in a buffer solution (solution C; see Example 2 below). First, each nucleic acid is prepared in solution C to obtain 50 μL solutions. After 10 μL of the 1 mM substrate prepared in solution C is added, the plate is set to the microplate reader SpectraMax190 (manufactured by Molecular Devices Corporation), and incubated at 37° C. for 5 minutes. Separately, 0.05 μg of chymase (recombinant, manufactured by SIGMA) is diluted in solution C, and 40 μL of this dilution is incubated at 37° C. for 5 minutes. The chymase solution is added to the mixture of the nucleic acid and substrate to initiate an enzyme reaction. The plate containing the reaction mixture is set to the microplate reader SpectraMax190 (manufactured by Molecular Devices Corporation), and examined for time-dependent changes in the fluorescence intensity at 37° C. for 5 minutes (excitation wavelength 380 nm, detection wavelength 460 nm). A linear approximation of the increase in the fluorescence of the AMC (7-amino-4-methylcoumarine) released from the substrate by chymase activity is generated, and its slope is taken as the initial reaction velocity. For control, samples are treated and analyzed in the same manner in two cases: use of a nucleic acid pool containing a random sequence of 30 or 40 nucleotides (negative control), and use of chymostatin, a known chymotrypsin-like serine protease inhibitor (positive control). Taking the initial reaction velocity without the nucleic acid and inhibitor as a 100% enzyme activity, the inhibitory rate for each test substance is calculated, and the inhibitor concentration required to cause a 50% inhibition of the enzyme activity (IC50) is determined.
Whether the nucleic acids shown by SEQ ID NO: 4-20, 22-34, and 38-48 inhibit the enzyme activity of chymase was determined as described below. The chymase substrate used was Suc-Ala-Ala-Pro-Phe-MCA (manufactured by Peptide Institute, Inc.), which contains the 4-amino-acid peptide Ala-Ala-Pro-Phe, a standard substrate for chymotrypsin-like proteases. Here, Suc is a protecting succinyl group, and MCA is a 4-methylcoumaryl-7-amide group; upon cleavage of the C-terminal side of phenylalanine, AMC (7-amino-4-methylcoumarine) is released. By detecting the fluorescence of this AMC, the enzyme activity of chymase can be determined. The assay was performed using a 96-well plate (F16 Black Maxisorp Fluoronunc, manufactured by Nunc), with a reaction mixture volume of 100 μL, in solution C as a buffer solution. First, each nucleic acid was serially diluted to 0.0027-2 μM concentrations in solution C to obtain 50 μL solutions. After 10 μL of the 1 mM substrate prepared in solution C was added thereto, the plate was set to the microplate reader SpectraMax190 (manufactured by Molecular Devices Corporation), and incubated at 37° C. for 5 minutes. Separately, 0.05 μg (or 0.005 μg) of chymase (recombinant, manufactured by SIGMA) was diluted in solution C to obtain a 40 μL chymase solution, and incubated at 37° C. for 5 minutes. The chymase solution was added to the mixture of the nucleic acid and substrate to initiate an enzyme reaction. The final chymase concentration in the reaction mixture was 16.7 nM (or 1.67 nM), the final substrate concentration being 100 μM. The plate containing the reaction mixture was set to the microplate reader SpectraMax190 (manufactured by Molecular Devices Corporation), and examined for time-dependent changes in the fluorescence intensity at 37° C. for 5 minutes (or 30 minutes) (excitation wavelength 380 nm, detection wavelength 460 nm). […]

[3] = target: T2, chymase (Homo sapiens, UniProt P23946); test: Surface plasmon resonance (Biacore T100), aptamer immobilized on SA chip, chymase injected as analyte; type: binding; set-up: key: ++: a sequence that binds to chymase significantly more strongly than the negative control 40N; +: a sequence that binds to chymase equivalently compared with the negative control 40N; conditions: Table 1; about 1000 RU nucleic acid immobilized, chymase 0.2 μM analyte, running buffer solution A; compared with 40N
T2 sequence (P23946 22-247): T1 sequence (P23946 22-247)
Protocol: Binding strength is measured using Biacore T100 (manufactured by GE Healthcare). In a method of measurement, the aptamer is first immobilized onto a sensor chip, the amount immobilized being about 1000 RU. 20 μL of a chymase solution for analyte, prepared at 0.2 μM, is injected, and the binding of chymase to the aptamer is detected. An RNA comprising a random nucleotide sequence of 30 or 40 nucleotides is used as a negative control.
The binding activities against chymase of the nucleic acids shown by SEQ ID NO: 4-20 and 22-34 were determined by the surface plasmon resonance method using Biacore T100 (manufactured by GE Healthcare). The sensor chip used was the SA chip, which had streptavidin immobilized thereon. Bound thereto was about 1500 RU of a 16-nucleotide Poly dT with biotin bound to the 5′ end thereof. […] 20 μL of chymase for analyte, prepared at 0.2 μM, was injected. Solution A was used as a running buffer.
The binding activities against chymase of the nucleic acids shown by SEQ ID NO: 38-48 were evaluated by the surface plasmon resonance method. In the evaluations for SEQ ID NO: 38-48, measurements were taken in the same manner as Example 1. Solution C was used as a running buffer.

[4] = Table 5, same manner as Example 3, mean value of two measurements
[5] = Table 4, same manner as Example 3, mean value for 2 to 3 measurements
[6] = Table 3, substrate 100 μM, solution C, 37° C., mean value for 2 to 3 measurements

For “59 (GGGUUAGAUAGAGAUAAAAACCC; 2'-fluoro at CU, RNA at AG, backbone not given here) [compound 59]”, the “binding activity using Biacore” value [1] was “++” and the IC50 [2, 4] was 38 ± 9 nM.

In the case of “50 (GGCAUUCUACAGAUAGAGAUAAAGUAGAAUUUAAC; 2'-fluoro at CU, RNA at AG, backbone not given here) [compound 50]”, the “Binding activity as determined using Biacore” value (“Binding activity as determined” for short) [1] is reported as “++” and the IC50 [2, 5] is reported as 138 ± 93 nM.

“68 (GGGUUAGAUAGUGUUAAAAACCC; listed as RNA, chemistry not fully specified) [compound 68]” was tested, and the “binding activity using Biacore” value [1] was “+” and the IC50 [2, 4] was over 1000 nM.

“61 (GGGUUAGAUAGAUUUAAAAACCC; 2'-fluoro at CU, RNA at AG, backbone not given here) [compound 61]” was tested, and the “binding activity using Biacore” value [1] was “++” and the IC50 [2, 4] was 23 ± 6 nM.

For “51 (CGUUACAUAAUGUAUAUACCAGGGUAACUAAACAUAGAAGAGCGG; 2'-fluoro at CU, RNA at AG, backbone not given here) [compound 51]”, the “Binding activity as determined” value [1] was “++” and the IC50 [2, 5] was 24 ± 9 nM.

“66 (GGGUUAGAUCGAGUUAAAAACCC; listed as RNA, chemistry not fully specified) [compound 66]” was tested, and the “binding activity using Biacore” value [1] was “+” and the IC50 [2, 4] was over 1000 nM.

With “60 (GGGUUAGAUAGAGCUAAAAACCC; 2'-fluoro at CU, RNA at AG, backbone not given here) [compound 60]” the “binding activity using Biacore” value [1] was “++” and the IC50 [2, 4] was 26 ± 6 nM.

“67 (GGGUUAGAUACAGUUAAAAACCC; listed as RNA, chemistry not fully specified) [compound 67]” was tested, and the “binding activity using Biacore” value [1] was “+” and the IC50 [2, 4] was over 1000 nM.

“63 (rGfCfUrAfCrArGrAfUrArGrArGfUfUrArArArGfUrArGfC) [compound 63]” was tested, and the “binding activity using Biacore” value [1] was “++” and the IC50 [2, 4] was 23 ± 3 nM.

With “52 (CCGUAUAUACCAGGGUAACUAAACGG; 2'-fluoro at CU, RNA at AG, backbone not given here) [compound 52]” the “Binding activity as determined” value [1] was “+” and the IC50 [2, 5] was over 1000 nM.

B1: 7 (nucleic acid)
chain: rGrGrGrAfCrGrGfUrArGrGrArAfUfUfCrAfCfCfUfUfUfCfCrArAfUfUrGfUrGrArArArGrArArAfCrAfCrArArArArArGrArArAfUrGrAfCrAfUfCrAfUrArGrArArGrArGfCrGrGfCfCrGfC
modifications: aptamer
With B1 the IC50 [2, 6] was over 500 nM and the “Binding activity as determined” value [3] was “++”.

B2: 34 (nucleic acid)
chain: rGrGrGrAfCrGrGfUrArGrGrArAfUfUfCfUrGfCfCrGfCrArAfCfCfCrArAfUrGrArArArAfCrGrArArGrAfUrArGrArGrAfUrArArAfUfCrGrArAfCrAfUrArGrArArGrArGfCrGrGfCfCrGfC
modifications: aptamer
B2 was tested, and the IC50 [2, 6] was 137 ± 9 nM and the “Binding activity as determined” value [3] was “+”.

B3: 5 (nucleic acid)
chain: rGrGrGrAfCrGrGfUrArGrGrArAfUfUfCfCfCrAfCfUfUrGfUfCfUfUfUrGrArGrGfCrArArGrArArAfUfUrGfUrAfUfUfCfCrGrArArGrArArGfCrAfUrArGrArArGrArGfCrGrGfCfCrGfC
modifications: aptamer
B3 was tested, and the IC50 [2, 6] was 80 ± 39 nM and the “Binding activity as determined” value [3] was “++”.

B4: 33 (nucleic acid)
chain: rGrGrGrAfCrGrGfUrArGrGrArAfUfUfCfCfUrGfUfCfUfUfUfUfCfCfCrAfCrGfCrArAfCrArArAfUfUrAfCrArGrArGfCfUfUfUrGfCrArArArAfCrAfUrArGrArArGrArGfCrGrGfCfCrGfC
modifications: aptamer
With B4 the IC50 [2, 6] was 145 ± 88 nM and the “Binding activity as determined” value [3] was “+”.

B5: 32 (nucleic acid)
chain: rGrGrGrAfCrGrGfUrArGrGrArAfUfUfCrGfUfCfCfUfCrAfUrGfUfCfUrAfUfUfUfUrGfCrArGrAfUrArGrAfCfUfUrArArArGfCrArArAfCrAfUrArGrArArGrArGfCrGrGfCfCrGfC
In the case of B5, the IC50 [2, 6] is reported as 235 ± 55 nM and the “Binding activity as determined” value [3] is reported as “+”.

B6: 6 (nucleic acid)
chain: rGrGrGrAfCrGrGfUrArGrGrArAfUfUfCfUrAfCrGrGfUfCfUrGfUrGfUrGrArArAfUfUrGrArArAfCrAfCrAfCrArArArGrArAfCrArAfUrArGrAfCrAfUrArGrArArGrArGfCrGrGfCfCrGfC
modifications: aptamer
For B6, the IC50 [2, 6] was 456 ± 261 nM and the “Binding activity as determined” value [3] was “++”.
